Consider 14 compounds from ChEMBL document CHEMBL3734744, “Synthesis, 3D pharmacophore, QSAR and docking studies of novel quinazoline derivatives with nitric oxide release moiety as preferential COX-2 inhibitors” (Medchemcomm, 2015).

The species named for one series is Ovis aries. Kind of series: Selectivity index, ratio of IC50 for ovine COX1 to IC50 for ovine COX2.
Series [1] deals with Rattus norvegicus. Kind of series: Antiinflammatory activity in Sprague-Dawley rat assessed as inhibition of carrageenan-induced paw edema at 80 mg/kg, po administered 30 mins prior to carrageenan challenge measured at 3 hrs by plethysmometer relative to meloxicam. Format: functional.
In series [2] the test system is Rattus norvegicus. Kind of series: Gastrointestinal toxicity in Wistar albino rat assessed as ulcer index at 10 mg/kg/day, po administered for 3 days measured after 2 hrs post last dose. Conditions: in vivo. In kind it is organism-based.
In series [3] the test system is Rattus norvegicus. Kind of series: Antiinflammatory activity in Sprague-Dawley rat assessed as inhibition of carrageenan-induced paw edema at 80 mg/kg, po administered 30 mins prior to carrageenan challenge measured at 1 hr by plethysmometer. Format: functional.
Series [4] addresses T1, Prostaglandin G/H synthase 2 (Ovis aries, UniProt P79208).
T1 sequence (P79208 whole entry): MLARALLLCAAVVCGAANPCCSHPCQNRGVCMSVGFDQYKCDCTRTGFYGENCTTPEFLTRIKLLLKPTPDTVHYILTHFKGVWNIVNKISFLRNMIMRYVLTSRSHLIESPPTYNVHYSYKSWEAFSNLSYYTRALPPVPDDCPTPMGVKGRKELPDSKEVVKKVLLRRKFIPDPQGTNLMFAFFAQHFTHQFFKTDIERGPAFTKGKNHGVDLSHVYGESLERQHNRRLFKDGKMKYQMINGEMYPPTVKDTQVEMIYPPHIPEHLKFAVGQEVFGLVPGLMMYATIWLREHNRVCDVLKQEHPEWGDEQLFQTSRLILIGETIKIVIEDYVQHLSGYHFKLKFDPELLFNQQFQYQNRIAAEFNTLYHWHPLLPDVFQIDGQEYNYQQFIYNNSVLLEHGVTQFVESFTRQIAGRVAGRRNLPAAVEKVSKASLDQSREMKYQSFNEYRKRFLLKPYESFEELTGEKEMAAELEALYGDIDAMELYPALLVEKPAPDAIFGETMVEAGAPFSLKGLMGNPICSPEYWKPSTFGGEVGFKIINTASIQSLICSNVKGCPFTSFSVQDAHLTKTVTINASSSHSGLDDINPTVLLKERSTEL
In words: Inhibition of ovine COX2 after 5 mins by enzyme immuno assay.

In series [5] the target is T2, Prostaglandin G/H synthase 1 (Ovis aries, UniProt P05979).
T2 sequence (P05979 whole entry): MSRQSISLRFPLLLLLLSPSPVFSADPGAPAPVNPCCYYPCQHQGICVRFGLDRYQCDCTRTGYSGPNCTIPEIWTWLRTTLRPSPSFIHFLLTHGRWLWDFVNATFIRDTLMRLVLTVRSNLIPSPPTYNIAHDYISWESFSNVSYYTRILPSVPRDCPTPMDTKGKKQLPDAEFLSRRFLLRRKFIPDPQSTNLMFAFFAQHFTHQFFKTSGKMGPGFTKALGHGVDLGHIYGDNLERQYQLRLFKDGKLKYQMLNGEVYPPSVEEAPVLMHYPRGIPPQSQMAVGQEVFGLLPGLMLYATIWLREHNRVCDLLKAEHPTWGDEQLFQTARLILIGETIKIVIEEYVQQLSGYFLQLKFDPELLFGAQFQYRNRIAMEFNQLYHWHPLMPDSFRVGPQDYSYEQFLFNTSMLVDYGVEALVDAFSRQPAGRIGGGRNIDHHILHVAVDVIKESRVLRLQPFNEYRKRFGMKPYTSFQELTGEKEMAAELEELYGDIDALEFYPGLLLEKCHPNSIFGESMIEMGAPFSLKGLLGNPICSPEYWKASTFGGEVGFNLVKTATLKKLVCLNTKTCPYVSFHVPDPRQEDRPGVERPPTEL
In words: Inhibition of ovine COX1 after 5 mins by enzyme immuno assay.

Series [6] concerns Rattus norvegicus. In words: Gastrointestinal toxicity in Wistar albino rat assessed as mild erosion at 10 mg/kg/day, po administered for 3 days measured after 2 hrs post last dose by haematoxylin/eosin staining-based microscopic analysis. In kind it is organism-based. To be noted: in vivo.
The subject of series [7] is Rattus norvegicus. Kind of series: Antiinflammatory activity in Sprague-Dawley rat assessed as inhibition of carrageenan-induced paw edema at 80 mg/kg, po administered 30 mins prior to carrageenan challenge measured at 2 hrs by plethysmometer. In kind it is functional.
For another series, the system named is Serum. In words: Induction of nitric oxide release in rat serum by Griess assay. Format: functional.
For series [8], the system named is Rattus norvegicus. Kind of series: Antiinflammatory activity in Sprague-Dawley rat assessed as inhibition of carrageenan-induced paw edema at 80 mg/kg, po administered 30 mins prior to carrageenan challenge measured at 3 hrs by plethysmometer. Format: functional.
The subject of series [9] is Rattus norvegicus. Kind of series: Gastrointestinal toxicity in Wistar albino rat assessed as ulceration at 10 mg/kg/day, po administered for 3 days measured after 2 hrs post last dose by haematoxylin/eosin staining-based microscopic analysis. Conditions: in vivo. In kind it is organism-based.
For series [10], the system named is Rattus norvegicus. In words: Gastrointestinal toxicity in Wistar albino rat assessed as irregular mucosa at 5 mg/kg/day, po administered for 3 days measured after 2 hrs post last dose by haematoxylin/eosin staining-based microscopic analysis. To be noted: in vivo. In kind it is organism-based.
Series [11] concerns Rattus norvegicus. Kind of series: Gastrointestinal toxicity in Wistar albino rat assessed as ulceration at 5 mg/kg/day, po administered for 3 days measured after 2 hrs post last dose by haematoxylin/eosin staining-based microscopic analysis. To be noted: in vivo. Format: organism-based.
The subject of series [12] is Rattus norvegicus. In words: Gastrointestinal toxicity in Wistar albino rat assessed as ulcer index at 5 mg/kg/day, po administered for 3 days measured after 2 hrs post last dose. Conditions: in vivo. Format: organism-based.
For series [13], the system named is Rattus norvegicus. In words: Gastrointestinal toxicity in Wistar albino rat assessed as intact mucosa at 10 mg/kg/day, po administered for 3 days measured after 2 hrs post last dose by haematoxylin/eosin staining-based microscopic analysis. Format: organism-based. Conditions: in vivo.

As to `CC(C)(C)NC(=O)Nn1c(CO[N+](=O)[O-])nc2ccccc2c1=O`, the Ratio IC50 in the series listed under Ovis aries was 3.57. For the same compound, the inhibition in vivo at 80 mg/kg came to 70.6% in the series with Rattus norvegicus [1], 6.4% with Rattus norvegicus [3], 14.1% in the series with Rattus norvegicus [7] and 43.7% with Rattus norvegicus [8]. Moreover, the UI in the series on Rattus norvegicus [2] was determined as 0.9. Moreover, the values for the IC50 in series [4] and in series [5] were 12.5 µM and 44.6 µM, respectively. Moreover, the results for the Activity result in the series with Rattus norvegicus [6] and in the series on Serum were “Toxic” and 10.76 µmol/L, respectively.
Regarding `Cc1nc2ccccc2c(=O)n1NS(=O)(=O)c1ccccc1`, in the series listed under Ovis aries, the Ratio IC50 was found to be 3.5. The inhibition in vivo at 80 mg/kg with Rattus norvegicus [1] turned out to be 77.2%; in the series with Rattus norvegicus [3] it was 5.6%; in the series with Rattus norvegicus [7], 22.2%; in the series with Rattus norvegicus [8], 47.8%. Besides, the IC50 in series [4] is 8.58 µM; in [5], 30.1 µM.
For the compound `CC(=O)Nc1ccc(S(=O)(=O)Nn2c(C)nc3ccccc3c2=O)cc1`, the Ratio IC50 in the series filed under Ovis aries stood at 5.16. The inhibition in vivo at 80 mg/kg was found to be 95.7% in the series on Rattus norvegicus [1], 20.8% in the series on Rattus norvegicus [3], 37.4% in the series with Rattus norvegicus [7] and 59.2% with Rattus norvegicus [8]. Also, the IC50 in [4] was determined as 4.41 µM; in series [5], 22.8 µM.
As to `Cc1nc2ccccc2c(=O)n1NC(=O)NC(C)(C)C`, the Ratio IC50 in the series listed under Ovis aries was determined as 5.28. Also, the inhibition in vivo at 80 mg/kg came to 82.5% with Rattus norvegicus [1], 10.4% in the series on Rattus norvegicus [3], 29.8% in the series with Rattus norvegicus [7] and 51% in the series with Rattus norvegicus [8]. For the same compound, the IC50 was found to be 6.53 µM in [4] and 34.5 µM in series [5].
As to `Cc1ccc(S(=O)(=O)Nn2c(C)nc3ccccc3c2=O)cc1`, the Ratio IC50 in the series listed under Ovis aries worked out at 5.67. Besides, the inhibition in vivo at 80 mg/kg with Rattus norvegicus [1] is 83.9%; in the series with Rattus norvegicus [3], 3.2%; in the series with Rattus norvegicus [7], 24.2%; in the series on Rattus norvegicus [8], 51.9%. The IC50 in [4] was 5.75 µM; in series [5] it was 32.7 µM.
Regarding `CC(=O)Nc1ccc(S(=O)(=O)Nn2c(CO[N+](=O)[O-])nc3ccccc3c2=O)cc1`, in the series listed under Ovis aries, the Ratio IC50 worked out at 6.72. Besides, the inhibition in vivo at 80 mg/kg with Rattus norvegicus [1] was more than 100%; with Rattus norvegicus [3], 15.2%; in the series with Rattus norvegicus [7], 40.4%; in the series with Rattus norvegicus [8], 64.8%. In the series with Rattus norvegicus [2], the UI amounted to 1.3. The Activity entry with Rattus norvegicus [9] is “Toxic”; in the series with Serum it was 7.9 µmol/L. The IC50 in series [4] is 3.59 µM; in [5], 24.1 µM.
For the compound `COc1ccc2c(c1)c(CC(=O)O)c(C)n2C(=O)c1ccc(Cl)cc1` [INDOMETHACIN], the Activity entry in the series with Rattus norvegicus [10] and in the series on Rattus norvegicus [11] was “Toxic” throughout. Besides, the UI in the series with Rattus norvegicus [12] is 1.8.
Turning to `O=C(NC1CCCCC1)Nn1c(CO[N+](=O)[O-])nc2ccccc2c1=O`, the Ratio IC50 in the series listed under Ovis aries turned out to be 5.03. The inhibition in vivo at 80 mg/kg in the series with Rattus norvegicus [1] is 80.6%; with Rattus norvegicus [3] it was 8%; in the series with Rattus norvegicus [7], 18.7%; in the series with Rattus norvegicus [8] it was 49.9%. In the series on Rattus norvegicus [2], the UI is 0.4. In addition, the values for the Activity entry with Rattus norvegicus [13] and in the series with Serum were “Non-toxic” and 28.53 µmol/L, respectively. In addition, the IC50 was 6.86 µM in series [4] and 34.6 µM in series [5].
Consider `O=c1c2ccccc2nc(CO[N+](=O)[O-])n1NS(=O)(=O)c1ccccc1`, for which the Ratio IC50 in the series listed under Ovis aries came to 2.41. Further, the inhibition in vivo at 80 mg/kg in the series on Rattus norvegicus [1] was 55%; in the series with Rattus norvegicus [3] it was 2.4%; in the series with Rattus norvegicus [7], 11.6%; in the series on Rattus norvegicus [8], 34%. Further, the UI in the series with Rattus norvegicus [2] came to 0.5. The Activity entry with Rattus norvegicus [9] was “Non-toxic”; with Serum, 16.73 µmol/L. Further, the IC50 was determined as 42.1 µM in [4] and 98.6 µM in [5].
In the case of `O=C(Nc1ccccc1)Nn1c(CO[N+](=O)[O-])nc2ccccc2c1=O`, the Ratio IC50 in the series listed under Ovis aries worked out at 4.11. Further, the inhibition in vivo at 80 mg/kg came to 82.9% in the series on Rattus norvegicus [1], 6.4% with Rattus norvegicus [3], 25.8% in the series on Rattus norvegicus [7] and 51.3% with Rattus norvegicus [8]. For the same compound, the UI in the series on Rattus norvegicus [2] is 0.6. Further, the values for the Activity result in the series on Rattus norvegicus [9] and in the series with Serum were “Non-toxic” and 22.8 µmol/L, respectively. Further, the values for the IC50 in series [4] and in series [5] were 5.93 µM and 24.4 µM, respectively.
As to `Cc1cnc(NC(=O)C2=C(O)c3ccccc3S(=O)(=O)N2C)s1` [MELOXICAM], the UI with Rattus norvegicus [2] was 0.6. The Activity result with Rattus norvegicus [9] was “Toxic”. The inhibition in vivo at 80 mg/kg in the series with Rattus norvegicus [3] worked out at 20.8%; in the series with Rattus norvegicus [7], 43.4%; with Rattus norvegicus [8], 61.9%.
For the compound `Cc1nc2ccccc2c(=O)n1NC(=S)Nc1ccccc1`, in the series filed under Ovis aries, the Ratio IC50 turned out to be 5.13. The inhibition in vivo at 80 mg/kg in the series with Rattus norvegicus [1] was determined as 100%; in the series with Rattus norvegicus [3], 14.4%; in the series on Rattus norvegicus [7] it was 42.9%; in the series on Rattus norvegicus [8], 61.9%. The IC50 in series [4] was 3.67 µM; in [5] it was 18.9 µM.
Consider `Cc1ccc(S(=O)(=O)Nn2c(CO[N+](=O)[O-])nc3ccccc3c2=O)cc1`, for which the Ratio IC50 in the series listed under Ovis aries stood at 3.32. The inhibition in vivo at 80 mg/kg was determined as 71.6% with Rattus norvegicus [1], 6.4% in the series on Rattus norvegicus [3], 15.7% in the series with Rattus norvegicus [7] and 44.3% in the series with Rattus norvegicus [8]. Further, the UI with Rattus norvegicus [2] came out at 1. Besides, the Activity entry was “Toxic” in the series with Rattus norvegicus [9] and 10.4 µmol/L in the series on Serum. Also, the IC50 was found to be 11.7 µM in series [4] and 38.8 µM in series [5].
Consider `Cc1nc2ccccc2c(=O)n1NC(=O)NC1CCCCC1`, for which the Ratio IC50 in the series listed under Ovis aries turned out to be 4.74. The inhibition in vivo at 80 mg/kg in the series with Rattus norvegicus [1] amounted to 88.6%; with Rattus norvegicus [3] it was 12%; with Rattus norvegicus [7], 41.9%; in the series on Rattus norvegicus [8] it was 54.8%. For the same compound, the IC50 in series [4] came out at 5 µM; in [5] it was 23.8 µM.
